Structures can show the parent of a compound that is named as a salt.
Target: IRAK4 (Homo sapiens (Human), UniProt Q9NWZ3)
Test: IRAK4 Kinase Assay (IMAP fluorescence polarization)
Type: biochemical
Details: 0.5 nM GST tagged IRAK4, 100 μM ATP, 30 minutes at 25° C., IMAP FP
Procedure: The kinase activity of IRAK4 is determined by its ability to catalyze the phosphorylation of a fluorescent polypeptide substrate. The extent of phosphorylation is measured using the IMAP technology (Molecular Devices) where the phosphorylated fluorescent substrate binds to the large M (III)-based nanoparticles which reduces the rotational speed of the substrate and thus increases its fluorescent polarization (FP).
20 μL reaction mixture contains 10 mM TriHCl, pH 7.2, 0.5 nM GST tagged IRAK4 (SignalChem), 100 nM fluorescent peptide substrate (RP7030, Molecular Devices), 100 μM ATP, 1 mM DDT, 1 mM MgCl2, and 0.01% Tween 20. The reaction is initiated by the addition of ATP. After incubation for 30 minutes at 25° C., 60 μL of Progressive IMAP Reagent (Molecular Devices) is added to stop the reaction. Change in RP7030's FP is determined by a FP reader (Analyst HT, LJL BioSystems).

IRAK4, sequence (Q9NWZ3 whole entry): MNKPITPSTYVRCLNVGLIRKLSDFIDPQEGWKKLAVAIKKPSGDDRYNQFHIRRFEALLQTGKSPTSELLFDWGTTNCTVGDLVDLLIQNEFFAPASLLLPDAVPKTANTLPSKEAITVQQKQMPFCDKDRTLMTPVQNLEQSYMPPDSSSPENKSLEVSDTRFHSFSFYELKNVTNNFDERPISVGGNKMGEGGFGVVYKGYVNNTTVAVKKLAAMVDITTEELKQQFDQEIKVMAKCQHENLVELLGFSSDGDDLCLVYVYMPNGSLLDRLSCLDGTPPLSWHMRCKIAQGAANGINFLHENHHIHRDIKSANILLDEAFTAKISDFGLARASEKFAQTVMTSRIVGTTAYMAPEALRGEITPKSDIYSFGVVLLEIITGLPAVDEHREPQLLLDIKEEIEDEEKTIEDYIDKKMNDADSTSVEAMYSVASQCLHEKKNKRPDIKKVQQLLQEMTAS

Point of comparison: Cn1cc(NC(=O)c2ccc3ccc(N4C[C@H]5CC[C@@H]4CN5)nn23)c(Br)n1 (single isomer, unassigned) [Example 36, N-(3-bromo-1-methyl-1H-pyrazol-4-yl)-2-[(1S,4S)- or (1R,4R)-2,5-diazabicyclo[2.2.2]oct-2-yl]pyrrolo[1,2-b]pyridazine-7-carboxamide trifluoroacetate], IC50 22 nM. Against it:
- Cn1cc(NC(=O)c2ccc3ccc(N4C[C@@H]5CN[C@@H](C5)C4)nn23)c(C(F)(F)F)n1 (single isomer, unassigned) [Example 3, 2-[(1S,5S)- or (1R,5R)-3,6-diazabicyclo[3.2.1]oct-3-yl]-N-[1-methyl-3-(trifluoromethyl)-1H-pyrazol-4-yl]pyrrolo[1,2-b]pyridazine-7-carboxamide] — 3.9-fold higher, 85 nM
- Cn1cc(NC(=O)c2ccc3ccc(N4C[C@H]5CN[C@H](C5)C4)nn23)c(C(F)(F)F)n1 (single isomer, unassigned) [Example 4, 2-[(1S,5S)- or (1R,5R)-3,6-diazabicyclo[3.2.1]oct-3-yl]-N-[1-methyl-3-(trifluoromethyl)-1H-pyrazol-4-yl]pyrrolo[1,2-b]pyridazine-7-carboxamide] — 6-fold higher, 131 nM
- Cn1cc(NC(=O)c2ccc3ccc(N4C[C@@H]5CC[C@H]4CN5)nn23)c(Cl)n1 (single isomer, unassigned) [Example 33, N-(3-chloro-1-methyl-1H-pyrazol-4-yl)-2-[(1S,4S)- or (1R,4R)-2,5-diazabicyclo[2.2.2]oct-2-yl]pyrrolo[1,2-b]pyridazine-7-carboxamide trifluoroacetate] — 2-fold higher, 45 nM
- Cn1cc(NC(=O)c2ccc3ccc(N4C[C@H]5CC[C@@H]4CN5)nn23)c(Cl)n1 (single isomer, unassigned) [Example 34, N-(3-chloro-1-methyl-1H-pyrazol-4-yl)-2-[(1S,4S)- or (1R,4R)-2,5-diazabicyclo[2.2.2]oct-2-yl]pyrrolo[1,2-b]pyridazine-7-carboxamide trifluoroacetate] — within 1.5-fold, 15 nM
- Cn1cc(NC(=O)c2ccc3ccc(N4C[C@@H]5CC[C@H]4CN5)nn23)c(Br)n1 (single isomer, unassigned) [Example 35, N-(3-bromo-1-methyl-1H-pyrazol-4-yl)-2-[(1S,4S)- or (1R,4R)-2,5-diazabicyclo[2.2.2]oct-2-yl]pyrrolo[1,2-b]pyridazine-7-carboxamide trifluoroacetate] — 1.5-fold higher, 34 nM
- Cn1cc(NC(=O)c2ccc3ccc(N4C[C@@H]5CC[C@H]4CN5)nn23)c(C(F)F)n1 (single isomer, unassigned) [Example 37, 2-[(1S,4S)- or (1R,4R)-2,5-diazabicyclo[2.2.2]oct-2-yl]-N-[3-(difluoromethyl)-1-methyl-1H-pyrazol-4-yl]pyrrolo[1,2-b]pyridazine-7-carboxamide trifluoroacetate] — 7.3-fold lower, 3 nM
- Cn1cc(NC(=O)c2ccc3ccc(N4C[C@H]5CC[C@@H]4CN5)nn23)c(C(F)F)n1 (single isomer, unassigned) [Example 38, 2-[(1S,4S)- or (1R,4R)-2,5-diazabicyclo[2.2.2]oct-2-yl]-N-[3-(difluoromethyl)-1-methyl-1H-pyrazol-4-yl]pyrrolo[1,2-b]pyridazine-7-carboxamide trifluoroacetate] — 11-fold lower, 2 nM
- Cn1cc(NC(=O)c2ccc3ccc(N[C@@H]4CCCCNC4)nn23)c(C(F)(F)F)n1 (single isomer, unassigned) [Example 39, 2-[(3R)- or (3S)-azepan-3-ylamino]-N-[1-methyl-3-(trifluoromethyl)-1H-pyrazol-4-yl]pyrrolo[1,2-b]pyridazine-7-carboxamide trifluoroacetate] — 11-fold lower, 2 nM
- Cn1cc(NC(=O)c2ccc3ccc(N[C@H]4CCCCNC4)nn23)c(C(F)(F)F)n1 (single isomer, unassigned) [Example 40, 2-[(3R)- or (3S)-azepan-3-ylamino]-N-[1-methyl-3-(trifluoromethyl)-1H-pyrazol-4-yl]pyrrolo[1,2-b]pyridazine-7-carboxamide trifluoroacetate] — 11-fold lower, 2 nM
- Cn1cc(NC(=O)c2ccc3ccc(N[C@@H]4CCCCNC4)nn23)c(C(F)F)n1 (single isomer, unassigned) [Example 41, 2-[(3R)- or (3S)-azepan-3-ylamino]-N-[3-(difluoromethyl)-1-methyl-1H-pyrazol-4-yl]pyrrolo[1,2-b]pyridazine-7-carboxamide trifluoroacetate] — 110-fold lower, 0.2 nM
- Cn1cc(NC(=O)c2ccc3ccc(N[C@H]4CCCCNC4)nn23)c(C(F)F)n1 (single isomer, unassigned) [Example 42, 2-[(3R)- or (3S)-azepan-3-ylamino]-N-[3-(difluoromethyl)-1-methyl-1H-pyrazol-4-yl]pyrrolo[1,2-b]pyridazine-7-carboxamide trifluoroacetate] — 73-fold lower, 0.3 nM
- Cn1cc(NC(=O)c2ccc3ccc(N4C[C@@H]5CC[C@H]4CN5)nn23)c(C#N)n1 (single isomer, unassigned) [Example 43, N-(3-cyano-1-methyl-1H-pyrazol-4-yl)-2-[(1S,4S)- or (1R,4R)-2,5-diazabicyclo[2.2.2]oct-2-yl]pyrrolo[1,2-b]pyridazine-7-carboxamide trifluoroacetate] — within 1.5-fold, 25 nM
- Cn1cc(NC(=O)c2ccc3ccc(N4C[C@H]5CC[C@@H]4CN5)nn23)c(C#N)n1 (single isomer, unassigned) [Example 44, N-(3-cyano-1-methyl-1H-pyrazol-4-yl)-2-[(1S,4S)- or (1R,4R)-2,5-diazabicyclo[2.2.2]oct-2-yl]pyrrolo[1,2-b]pyridazine-7-carboxamide trifluoroacetate] — 2.3-fold higher, 50 nM
- Cn1cc(NC(=O)c2ccc3ccc(N4C[C@@H]5CN[C@@H](C5)C4)nn23)c(C(F)F)n1 (single isomer, unassigned) [Example 50, 2-[(1S,5S)- or (1R,5R)-3,6-diazabicyclo[3.2.1]oct-3-yl]-N-[3-(difluoromethyl)-1-methyl-1H-pyrazol-4-yl]pyrrolo[1,2-b]pyridazine-7-carboxamide] — 5.5-fold lower, 4 nM
- Cn1cc(NC(=O)c2ccc3ccc(N4C[C@@H]5CN[C@@H](C5)C4)nn23)c(C(F)F)n1 (single isomer, unassigned) [Example 51, 2-[(1S,5S)- or (1R,5R)-3,6-diazabicyclo[3.2.1]oct-3-yl]-N-[3-(difluoromethyl)-1-methyl-1H-pyrazol-4-yl]pyrrolo[1,2-b]pyridazine-7-carboxamide] — 1.8-fold lower, 12 nM
- O=C(Nc1ccsc1Br)c1ccc2ccc(N3C[C@@H]4CC[C@H]3CN4)nn12 (single isomer, unassigned) [Example 78, N-(2-bromothiophen-3-yl)-2-[(1S,4S)- or (1R,4R)-2,5-diazabicyclo[2.2.2]oct-2-yl]pyrrolo[1,2-b]pyridazine-7-carboxamide trifluoroacetate] — 32-fold higher, 697 nM
- O=C(Nc1ccsc1Br)c1ccc2ccc(N3C[C@H]4CC[C@@H]3CN4)nn12 (single isomer, unassigned) [Example 79, N-(2-bromothiophen-3-yl)-2-[(1S,4S)- or (1R,4R)-2,5-diazabicyclo[2.2.2]oct-2-yl]pyrrolo[1,2-b]pyridazine-7-carboxamide trifluoroacetate] — 8.7-fold higher, 192 nM
- N#Cc1sccc1NC(=O)c1ccc2ccc(N3C[C@@H]4CC[C@H]3CN4)nn12 (single isomer, unassigned) [Example 80, N-(2-cyanothiophen-3-yl)-2-[(1S,4S)- or (1R,4R)-2,5-diazabicyclo[2.2.2]oct-2-yl]pyrrolo[1,2-b]pyridazine-7-carboxamide formate] — 4.7-fold higher, 103 nM
